Experimental data from US20240398737A1, “FUNCTIONALIZED LONG-CHAIN HYDROCARBON MONO- AND DI-CARBOXYLIC ACIDS AND DERIVATIVES THEREOF, AND THEIR USE FOR THE PREVENTION OR TREATMENT OF DISEASE” (Espervita Therapeutics, Inc., priority 2021, published 2024).
“And” between values parts separate entries of the source, which are not always exact repeats. Equal values may be shown once.

Tests used:
Type in all cases: biochemical
Aurora A = Aurora A (Homo sapiens (Human), UniProt O14965); assay: Wild type kinase screen: Aurora A; conditions: compound at 10 μM, 10 μM ATP, Data 1 and Data 2 duplicates
Aurora B = Aurora B (Homo sapiens (Human), UniProt Q96GD4); assay: Wild type kinase screen: Aurora B; conditions: compound at 10 μM, 10 μM ATP, Data 1 and Data 2 duplicates
AURORA C = AURORA C (Homo sapiens (Human), UniProt Q9UQB9); assay: Wild type kinase screen: AURORA C; conditions: compound at 10 μM, 10 μM ATP, Data 1 and Data 2 duplicates
BMX/ETK = BMX/ETK (Homo sapiens (Human), UniProt P51813); assay: Wild type kinase screen: BMX/ETK; conditions: compound at 10 μM, 10 μM ATP, Data 1 and Data 2 duplicates
c-Kit = c-Kit (Homo sapiens (Human), UniProt P10721); assay: Wild type kinase screen: c-Kit; conditions: compound at 10 μM, 10 μM ATP, Data 1 and Data 2 duplicates
CAMK2g = CAMK2g (Homo sapiens (Human), UniProt Q13555); assay: Wild type kinase screen: CAMK2g; conditions: compound at 10 μM, 10 μM ATP, Data 1 and Data 2 duplicates
DDR2 = DDR2 (Homo sapiens (Human), UniProt Q16832); assay: Wild type kinase screen: DDR2; conditions: compound at 10 μM, 10 μM ATP, Data 1 and Data 2 duplicates
ERK7/MAPK15 = ERK7/MAPK15 (Homo sapiens (Human), UniProt Q8TD08); assay: Wild type kinase screen: ERK7/MAPK15; conditions: compound at 10 μM, 10 μM ATP, Data 1 and Data 2 duplicates
GSK3b = GSK3b (Homo sapiens (Human), UniProt P49841); assay: Wild type kinase screen: GSK3b; conditions: compound at 10 μM, 10 μM ATP, Data 1 and Data 2 duplicates
LIMK1 = LIMK1 (Homo sapiens (Human), UniProt P53667); assay: Wild type kinase screen: LIMK1; conditions: compound at 10 μM, 10 μM ATP, Data 1 and Data 2 duplicates
MAPKAPK2 = MAPKAPK2 (Homo sapiens (Human), UniProt P49137); assay: Wild type kinase screen: MAPKAPK2; conditions: compound at 10 μM, 10 μM ATP, Data 1 and Data 2 duplicates
MELK = MELK (Homo sapiens (Human), UniProt Q14680); assay: Wild type kinase screen: MELK; conditions: compound at 10 μM, 10 μM ATP, Data 1 and Data 2 duplicates
MLCK/MYLK = MLCK/MYLK (Homo sapiens (Human), UniProt Q15746); assay: Wild type kinase screen: MLCK/MYLK; conditions: compound at 10 μM, 10 μM ATP, Data 1 and Data 2 duplicates
NEK2 = NEK2 (Homo sapiens (Human), UniProt P51955); assay: Wild type kinase screen: NEK2; conditions: compound at 10 μM, 10 μM ATP, Data 1 and Data 2 duplicates
PIM3 = PIM3 (Homo sapiens (Human), UniProt Q86V86); assay: Wild type kinase screen: PIM3; conditions: compound at 10 μM, 10 μM ATP, Data 1 and Data 2 duplicates
RIPK4 = RIPK4 (Homo sapiens (Human), UniProt P57078); assay: Wild type kinase screen: RIPK4; conditions: compound at 10 μM, 10 μM ATP, Data 1 and Data 2 duplicates
TNIK = TNIK (Homo sapiens (Human), UniProt Q9UKE5); assay: Wild type kinase screen: TNIK; conditions: compound at 10 μM, 10 μM ATP, Data 1 and Data 2 duplicates
FLT1/VEGFR1 = FLT1/VEGFR1 (Homo sapiens (Human), UniProt P17948); assay: Wild type kinase screen: FLT1/VEGFR1; conditions: compound at 10 μM, 10 μM ATP, Data 1 and Data 2 duplicates
Human ACC1 = Human ACC1 (Homo sapiens (Human), UniProt Q13085); assay: ACC1 enzymatic assay (ADP-Glo); conditions: recombinant human ACC1 5 nM; 10 concentrations from 300 μM; Runs 1-3; read-out: Compound IC50 (M) ACC1
Method: (§1) Human ACC1 (Cat #50202 Lot #120830) and ACC2 (Cat #50201 Lot #160217) were obtained from BPS Biosciences, San Diego, CA 92121. Human ACC1 had C-terminal flag and His-tags with a MW of 270 KDa after purification from Baculovirus infected Sf9 cell expression system and came as a solution in 50 mM Tris-HCl, pH 8.0, 500 mM NaCl, 10% glycerol, 1 mM DTT, 100 μg/ml FLAG peptide with 70% purity. The stock concentration was 0.25 mg/ml corresponding to 0.926 μM. Human ACC2 was also purified from Baculovirus infected Sf9 expression system. […] The stock concentration was 0.1 mg/ml corresponding to 0.36 μM. The assay buffer for measuring the activity of ACC contained: 30 mM HEPES (pH 7.4), 2 mM MgCl2, 0.01% Brij35, 2 mM DTT, 1% DMSO (solvent for compound). For ACC1 and ACC2 assays, the following concentrations of substrate and cofactors were used: 12 mM NaHCO3, 10 μM acetyl CoA, 10 μM ATP, and 2 mM K-citrate. The recombinant human enzyme was used at 5 nM for ACC1 and 1 nM for ACC2. In brief, enzyme alone in the above buffer without substrate was used for background. All test materials were dissolved in 100% DMSO using acoustic technology (Echo550). The prepared solution was preincubated for 15 min followed by the addition of 5 μL/well of ADP standard. ATP was then added to start the reaction. The assay contents were spun and briefly shaken followed by incubation at room temperature for 1 h. At the end of completion of assay, 5 μL of ADP-Glo was added to each well to stop the reaction. The contents were mixed, spun and incubated at room temperature for 40 min followed by the addition of 10 μL/well of ADP detection reagent. The contents were spun, mixed and covered with plastic to measure luminescence. […] The light generated, measured in a luminometer, correlates to the amount of ADP generated in the ACC assay, which is indicative of ACC activity.
(§2) The enzyme concentrations for ACC1 and ACC2 were 5 nM and 1 nM, respectively.
Data represent nM or μM ADP produced, % Activity (relative to no inhibitor controls), and curve fits were performed by GraphPad Prism software. […]

Human ACC2 = Human ACC2 (Homo sapiens (Human), UniProt O00763); assay: ACC2 enzymatic assay (ADP-Glo); conditions: recombinant human ACC2 1 nM; 10 concentrations from 300 μM; Runs 1-3; read-out: Compound IC50 (M) ACC2
Method: as §1, §2
Data represent nM or μM ADP produced, % Activity (relative to no inhibitor controls), and curve fits were performed by GraphPad Prism software. The IC50 concentration-response curves were generated for both the ACC1 and ACC2 assays using recombinant human ACC.

human ACLY = human ACLY (Homo sapiens (Human), UniProt P53396); assay: ATP-citrate lyase (ACLY) enzymatic assay (ADP-Glo); conditions: recombinant human ACLY; 10 concentrations from 300 μM; Runs 1-3; read-out: Compound IC50 (M) ACLY
Method: ATP citrate lyase was obtained from Sino Biological Inc. Cat #11769-H07B, Lot #LC08DE1701. It was prepared from a DNA sequence encoding the human ACLY (P53396) (Met 1-Met 1101) expressed in Baculovirus-Insect Cells, with a polyhistidine tag at the N-terminus. The recombinant human ACLY consists of 1120 amino acids and has a calculated molecular mass of 123 kDa. It migrates as an approximately 110 kDa band in SDS-PAGE under reducing conditions. The enzyme came as a lyophilized powder in sterile 20 mM Tris, 500 mM NaCl, pH 8.0, 10% glycine. Normally 5%-8% trehalose and mannitol are added as protectants before lyophilization. The recombinant human ACLY from Sino Biological was formulated in 45 mM Tris-HCl, pH 8.0, 124 mM NaCl, 2.4 mM KCl, 18 mM glutathione, 10% glycerol, and 3 mM DTT.
To detect ADP produced from ACL assay, the ADP-Glo™ assay format from Promega, Madison, WI, was used, to detect the conversion of ATP to ADP. […] This assay is performed in two steps: i) after the ACL-mediated enzymatic reaction that utilizes ATP and produces ADP, ADP-Glo™ Reagent is added to terminate the kinase reaction and deplete the remaining ATP, and ii) the Kinase Detection Reagent is added to convert ADP to ATP and allow the newly synthesized ATP to be measured using a luciferase/luciferin reaction. The light generated, measured in a luminometer, correlates to the amount of ADP generated in the ACL assay, which is indicative of ACL activity.
Data represent nM or μM ADP produced, % Activity (relative to no inhibitor controls), and curve fits were performed by GraphPad Prism software. The IC50 concentration-response curves were generated for ADPGlo™ using recombinant human ACL from Sino Biologicals Inc.

Chain of BMX/ETK (P51813 whole entry): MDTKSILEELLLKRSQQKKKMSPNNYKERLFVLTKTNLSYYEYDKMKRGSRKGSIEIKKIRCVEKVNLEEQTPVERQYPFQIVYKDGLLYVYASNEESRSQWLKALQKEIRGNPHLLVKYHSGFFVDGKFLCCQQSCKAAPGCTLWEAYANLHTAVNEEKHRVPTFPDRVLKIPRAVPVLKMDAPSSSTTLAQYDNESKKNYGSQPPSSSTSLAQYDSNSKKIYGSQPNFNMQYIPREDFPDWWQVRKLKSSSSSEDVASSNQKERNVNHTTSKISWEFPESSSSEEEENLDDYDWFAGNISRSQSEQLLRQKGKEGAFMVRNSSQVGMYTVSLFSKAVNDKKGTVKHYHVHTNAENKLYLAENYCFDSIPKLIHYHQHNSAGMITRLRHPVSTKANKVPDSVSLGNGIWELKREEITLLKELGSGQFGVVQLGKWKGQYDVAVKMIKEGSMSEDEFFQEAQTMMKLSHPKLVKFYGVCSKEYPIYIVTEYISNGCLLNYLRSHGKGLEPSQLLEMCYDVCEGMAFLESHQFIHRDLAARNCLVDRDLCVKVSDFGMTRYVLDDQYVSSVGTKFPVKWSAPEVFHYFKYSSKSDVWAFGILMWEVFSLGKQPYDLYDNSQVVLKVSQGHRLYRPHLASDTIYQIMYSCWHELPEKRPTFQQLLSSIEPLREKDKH
Chain of RIPK4 (P57078 whole entry, species assumed): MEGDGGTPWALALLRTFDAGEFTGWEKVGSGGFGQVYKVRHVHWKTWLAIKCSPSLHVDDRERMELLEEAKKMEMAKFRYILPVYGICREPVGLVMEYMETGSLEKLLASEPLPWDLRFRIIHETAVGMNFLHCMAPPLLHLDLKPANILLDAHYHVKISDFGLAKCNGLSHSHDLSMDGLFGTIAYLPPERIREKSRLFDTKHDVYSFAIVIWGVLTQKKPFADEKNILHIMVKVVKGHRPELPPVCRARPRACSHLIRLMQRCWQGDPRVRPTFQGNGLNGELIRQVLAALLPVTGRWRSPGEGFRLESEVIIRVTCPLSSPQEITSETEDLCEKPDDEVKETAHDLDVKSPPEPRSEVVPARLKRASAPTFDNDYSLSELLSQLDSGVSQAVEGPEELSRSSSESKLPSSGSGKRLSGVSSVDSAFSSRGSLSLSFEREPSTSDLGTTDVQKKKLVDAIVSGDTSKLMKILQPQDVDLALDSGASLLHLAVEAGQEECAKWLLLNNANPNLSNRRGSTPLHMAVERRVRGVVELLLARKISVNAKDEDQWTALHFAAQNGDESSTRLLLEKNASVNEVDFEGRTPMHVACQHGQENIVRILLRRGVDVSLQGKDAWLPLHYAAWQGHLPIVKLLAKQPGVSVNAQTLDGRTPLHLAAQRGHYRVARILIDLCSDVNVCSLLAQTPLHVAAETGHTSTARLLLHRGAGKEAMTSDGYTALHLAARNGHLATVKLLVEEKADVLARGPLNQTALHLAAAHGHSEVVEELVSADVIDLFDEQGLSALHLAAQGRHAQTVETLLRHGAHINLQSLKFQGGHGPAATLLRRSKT
Chain of human ACLY (P53396 whole entry): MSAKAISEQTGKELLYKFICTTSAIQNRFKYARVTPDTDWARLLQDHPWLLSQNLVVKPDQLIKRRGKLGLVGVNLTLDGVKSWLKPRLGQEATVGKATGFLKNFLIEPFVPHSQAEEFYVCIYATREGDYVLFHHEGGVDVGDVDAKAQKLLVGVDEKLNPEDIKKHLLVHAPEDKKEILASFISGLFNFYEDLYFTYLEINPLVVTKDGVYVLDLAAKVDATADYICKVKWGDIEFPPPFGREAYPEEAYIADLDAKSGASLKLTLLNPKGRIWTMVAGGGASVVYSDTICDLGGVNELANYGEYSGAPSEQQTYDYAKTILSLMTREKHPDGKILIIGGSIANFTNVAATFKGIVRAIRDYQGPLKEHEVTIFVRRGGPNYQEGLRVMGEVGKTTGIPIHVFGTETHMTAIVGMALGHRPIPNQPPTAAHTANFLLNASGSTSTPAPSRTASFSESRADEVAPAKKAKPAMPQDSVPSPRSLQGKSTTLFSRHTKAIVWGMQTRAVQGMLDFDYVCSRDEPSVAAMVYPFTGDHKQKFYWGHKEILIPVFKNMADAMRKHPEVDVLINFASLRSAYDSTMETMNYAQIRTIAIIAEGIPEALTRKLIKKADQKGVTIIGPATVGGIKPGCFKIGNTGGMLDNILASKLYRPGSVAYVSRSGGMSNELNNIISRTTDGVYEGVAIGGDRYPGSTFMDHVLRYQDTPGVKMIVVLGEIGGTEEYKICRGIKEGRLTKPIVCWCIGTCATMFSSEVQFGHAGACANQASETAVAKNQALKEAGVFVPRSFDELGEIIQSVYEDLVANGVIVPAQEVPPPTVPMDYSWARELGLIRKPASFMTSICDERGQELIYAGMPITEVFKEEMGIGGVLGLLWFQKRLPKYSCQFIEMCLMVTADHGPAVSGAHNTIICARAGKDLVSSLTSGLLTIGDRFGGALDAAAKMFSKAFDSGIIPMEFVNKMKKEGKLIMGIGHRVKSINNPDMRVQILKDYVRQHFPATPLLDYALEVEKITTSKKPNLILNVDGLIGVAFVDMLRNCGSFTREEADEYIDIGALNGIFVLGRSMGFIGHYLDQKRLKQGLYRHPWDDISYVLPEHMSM
Chain of DDR2 (Q16832 22-855, species assumed): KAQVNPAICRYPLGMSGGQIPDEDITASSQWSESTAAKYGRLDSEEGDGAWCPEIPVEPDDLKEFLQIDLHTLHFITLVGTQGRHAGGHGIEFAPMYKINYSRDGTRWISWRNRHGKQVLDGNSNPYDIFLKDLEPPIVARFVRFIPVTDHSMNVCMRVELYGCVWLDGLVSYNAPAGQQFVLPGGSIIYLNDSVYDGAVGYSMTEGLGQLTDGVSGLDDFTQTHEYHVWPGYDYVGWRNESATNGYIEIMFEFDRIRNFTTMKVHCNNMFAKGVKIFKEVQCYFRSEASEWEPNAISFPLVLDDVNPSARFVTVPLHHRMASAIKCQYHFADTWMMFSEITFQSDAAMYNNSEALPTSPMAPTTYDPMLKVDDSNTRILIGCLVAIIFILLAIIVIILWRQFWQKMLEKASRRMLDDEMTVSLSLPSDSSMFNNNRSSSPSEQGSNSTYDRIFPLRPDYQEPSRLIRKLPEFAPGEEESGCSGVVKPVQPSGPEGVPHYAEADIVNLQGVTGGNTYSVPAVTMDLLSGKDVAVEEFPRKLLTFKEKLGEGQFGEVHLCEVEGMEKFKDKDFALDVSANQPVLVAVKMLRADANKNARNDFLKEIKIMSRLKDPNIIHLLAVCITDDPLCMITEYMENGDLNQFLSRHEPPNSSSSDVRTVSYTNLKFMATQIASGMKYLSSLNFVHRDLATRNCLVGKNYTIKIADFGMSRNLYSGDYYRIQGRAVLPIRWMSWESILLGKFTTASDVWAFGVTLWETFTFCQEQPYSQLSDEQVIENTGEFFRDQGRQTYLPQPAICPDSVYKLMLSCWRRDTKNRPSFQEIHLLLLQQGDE
Chain of AURORA C (Q9UQB9 whole entry): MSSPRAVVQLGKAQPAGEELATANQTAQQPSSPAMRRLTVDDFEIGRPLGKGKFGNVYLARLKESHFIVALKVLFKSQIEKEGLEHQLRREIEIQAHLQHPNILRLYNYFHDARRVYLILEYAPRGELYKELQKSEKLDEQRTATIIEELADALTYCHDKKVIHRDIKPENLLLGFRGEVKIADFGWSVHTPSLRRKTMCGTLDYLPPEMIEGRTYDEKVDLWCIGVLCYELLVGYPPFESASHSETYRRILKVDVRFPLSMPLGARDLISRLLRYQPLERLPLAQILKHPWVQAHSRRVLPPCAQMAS
Chain of MELK (Q14680 whole entry, species assumed): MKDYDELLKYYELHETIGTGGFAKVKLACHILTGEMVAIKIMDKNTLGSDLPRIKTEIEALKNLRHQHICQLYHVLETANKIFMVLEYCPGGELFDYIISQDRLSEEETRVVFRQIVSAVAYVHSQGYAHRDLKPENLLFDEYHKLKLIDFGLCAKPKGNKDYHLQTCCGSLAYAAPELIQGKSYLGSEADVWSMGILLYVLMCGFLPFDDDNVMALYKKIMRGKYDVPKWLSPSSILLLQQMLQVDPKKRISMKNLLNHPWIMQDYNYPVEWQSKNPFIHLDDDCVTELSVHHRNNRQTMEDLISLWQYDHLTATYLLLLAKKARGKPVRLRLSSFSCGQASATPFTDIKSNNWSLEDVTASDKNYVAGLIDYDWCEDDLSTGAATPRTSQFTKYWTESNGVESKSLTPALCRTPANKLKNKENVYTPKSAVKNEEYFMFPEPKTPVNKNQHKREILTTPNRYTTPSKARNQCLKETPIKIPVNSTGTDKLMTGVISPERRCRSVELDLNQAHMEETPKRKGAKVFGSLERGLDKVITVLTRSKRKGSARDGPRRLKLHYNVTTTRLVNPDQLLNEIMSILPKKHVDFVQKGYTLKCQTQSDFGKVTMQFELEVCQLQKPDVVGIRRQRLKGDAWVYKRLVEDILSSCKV

Row | SMILES | % Enzyme Activity (relative to DMSO controls) (Aurora A) | % Enzyme Activity (relative to DMSO controls) (Aurora B) | % Enzyme Activity (relative to DMSO controls) (AURORA C) | % Enzyme Activity (relative to DMSO controls) (BMX/ETK) | % Enzyme Activity (relative to DMSO controls) (c-Kit) | % Enzyme Activity (relative to DMSO controls) (CAMK2g) | % Enzyme Activity (relative to DMSO controls) (DDR2) | % Enzyme Activity (relative to DMSO controls) (ERK7/MAPK15) | % Enzyme Activity (relative to DMSO controls) (GSK3b) | % Enzyme Activity (relative to DMSO controls) (LIMK1) | % Enzyme Activity (relative to DMSO controls) (MAPKAPK2) | % Enzyme Activity (relative to DMSO controls) (MELK) | % Enzyme Activity (relative to DMSO controls) (MLCK/MYLK) | % Enzyme Activity (relative to DMSO controls) (NEK2) | % Enzyme Activity (relative to DMSO controls) (PIM3) | % Enzyme Activity (relative to DMSO controls) (RIPK4) | % Enzyme Activity (relative to DMSO controls) (TNIK) | % Enzyme Activity (relative to DMSO controls) (FLT1/VEGFR1) | IC50 (Human ACC1) | IC50 (Human ACC2) | further results
1 | CC(C)(CCCCc1ccc(CCCCC(C)(C)C(=O)SCCNC(=O)CCNC(=O)[C@H](O)C(C)(C)COP(=O)(O)OP(=O)(O)OC[C@H]2O[C@@H](n3cnc4c(N)ncnc43)[C@H](O)[C@@H]2OP(=O)(O)O)cc1)C(=O)O [Compound I-1-CoA, 6-[4-(5-carboxy-5-methylhexyl)-phenyl]-2,2-dimethylhexanoic acid Coenzyme A ester] | 12.44% and 12.42% | 36.79% and 32.68% | 78.81% and 72.15% | 49.55% and 47.76% | 73.56% and 73.24% | 53.91% and 53.05% | 88.28% and 79.94% | 51.57% and 45.02% | 63.29% and 62.44% | 77.88% and 76.61% | 85.04% and 84.66% | 23.02% and 21.99% | 2.06% and −0.71% | 0.89% and 0.63% | 73.92% and 70.32% | 32.26% and 29.70% | 39.22% and 36.50% | 84.17% and 82.94% | 1.63e-05 M and 1.33e-05 M and 1.25e-05 M | 9.41e-06 M and 7.72e-06 M and 9.06e-06 M | IC50 (human ACLY): 3.34e-06 M and 2.28e-06 M and 2.5e-06 M
2 | CC(C)(CCCCc1cccc(CCCCC(C)(C)C(=O)SCCNC(=O)CCNC(=O)[C@H](O)C(C)(C)COP(=O)(O)OP(=O)(O)OC[C@H]2O[C@@H](n3cnc4c(N)ncnc43)[C@H](O)[C@@H]2OP(=O)(O)O)c1)C(=O)O [Compound I-32-CoA, 6-[3-(5—Carboxy-5-methylhexyl)-phenyl]-2,2-dimethylhexanoic acid Coenzyme A Ester] | 13.04% and 11.95% | 33.27% and 30.67% | 48.46% and 46.83% | 49.54% and 43.87% | 49.53% and 49.21% | 35.05% and 34.20% | 29.98% and 25.40% | 88.39% and 80.61% | 23.69% and 22.51% | 47.31% and 45.01% | 17.17% and 15.90% | 28.56% and 27.35% | 3.21% and 1.59% | 35.98% and 34.99% | 51.10% and 43.67% | 33.02% and 32.84% | 70.02% and 66.13% | 52.06% and 51.61% | 5.07e-06 M and 5e-06 M and 6.03e-06 M | 5.02e-06 M and 4.22e-06 M and 3.33e-06 M | IC50 (human ACLY): 9.88e-07 M and 1.22e-06 M and 1.44e-06 M
